The values below come from ChEMBL document CHEMBL1140173, “Clerodane diterpenoids with NGF-potentiating activity from Ptychopetalum olacoides” (J Nat Prod, 2008).

Calls of active or inactive are those of the source. The rule behind the calls is not given here.

In assay [1] the test system is PC-12. Briefly: Induction of neurite outgrowth in rat PC12 cells in presence of nerve growth factor at 0.1 to 10.0 uM. The assay is classed as functional, cell-based.
The test system of assay [2] is PC-12. Briefly: Induction of neurite outgrowth in rat PC12 cells in absence of nerve growth factor at 0.1 to 10.0 uM. The assay is classed as functional, cell-based.

Consider `CO[C@H]1O[C@@H]2C[C@@]3(C)C(C)=CCC[C@@H]3[C@@]1(CCc1ccoc1)[C@@H]2C`, for which the result in the assay on PC-12 [1] and in the assay with PC-12 [2] was inactive.

For `CC1=CCC[C@@H]2[C@]3(CCc4ccoc4)C(=O)O[C@H](C[C@@]12C)[C@H]3C`, the outcome in the assay on PC-12 [1] and with PC-12 [2] was inactive.
